Data on ten molecules can be found in patent US7888343B2, “Substituted, bicyclic 8-pyrrolidinoxanthines, and methods for their use as inhibitors of dipeptidyl peptidase” (Sanofi-A Ventis Deutschland GmbH, priority 2004, dated 2011).

Each structure is given as a SMILES string. Where a name gives a salt, the structure may show the parent alone.

In the first series the target is T1, DPP-IV from porcine kidney (Sus scrofa, UniProt P22411).
T1 construct: DPP-IV from porcine kidney (Sigma, Munich); purchased Sigma, Munich; host or cells: porcine kidney (tissue-derived enzyme)
T1 sequence (P22411 whole entry): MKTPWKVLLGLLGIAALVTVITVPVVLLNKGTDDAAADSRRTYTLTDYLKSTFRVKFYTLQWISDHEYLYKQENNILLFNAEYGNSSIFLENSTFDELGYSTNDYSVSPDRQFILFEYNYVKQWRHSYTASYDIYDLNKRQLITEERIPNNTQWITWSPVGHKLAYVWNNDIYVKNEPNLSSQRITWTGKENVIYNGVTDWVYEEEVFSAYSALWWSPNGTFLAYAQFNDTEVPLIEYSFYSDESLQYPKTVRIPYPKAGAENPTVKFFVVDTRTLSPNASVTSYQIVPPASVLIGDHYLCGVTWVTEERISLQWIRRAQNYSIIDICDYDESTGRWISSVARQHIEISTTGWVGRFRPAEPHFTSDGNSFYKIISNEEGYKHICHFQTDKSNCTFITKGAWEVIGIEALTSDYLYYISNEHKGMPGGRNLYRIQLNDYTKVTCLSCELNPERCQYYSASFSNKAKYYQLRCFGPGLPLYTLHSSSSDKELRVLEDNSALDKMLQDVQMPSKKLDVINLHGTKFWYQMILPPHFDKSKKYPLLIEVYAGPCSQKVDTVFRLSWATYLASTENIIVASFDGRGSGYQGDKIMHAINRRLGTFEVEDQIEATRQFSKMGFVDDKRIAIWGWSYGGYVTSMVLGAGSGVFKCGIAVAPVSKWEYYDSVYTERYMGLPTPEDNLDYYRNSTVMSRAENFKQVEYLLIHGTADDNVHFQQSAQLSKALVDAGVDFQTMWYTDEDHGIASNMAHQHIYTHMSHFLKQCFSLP
In words: Measurement of the DPP-IV activity (fluorimetric H-Ala-Pro-AFC conversion). Type of series: biochemical. As to conditions: DPP-IV 1 mU/ml, H-Ala-Pro-AFC 15 μM, Tris/HCl 40 mM pH 7.4, room temperature. On the procedure:
The reaction was carried out at room temperature for various times (typically 10 min) and stopped at the end of the reaction by adding 20 μl of ZnCl2(1 M). […] When inhibitors were added, the added buffer volume was adapted so that a total volume of 200 μl was maintained for the assay mixture.
Consider `CC(C)=CCn1c(N2CCC3CNCC32)nc2c1c(=O)n(CC(=O)c1ccccc1Cl)c(=O)n2C` (stereo not shown) [Example 41, 1-[2-(2-Chlorophenyl)-2-oxo-ethyl]-8-(hexahydropyrrolo[3,4-b]pyrrol-1-yl)-3-methyl-7-(3-methylbut-2-enyl)-3,7-dihydropurine-2,6-dione trifluoroacetate], for which the IC50 worked out at 10.5 nM.

The molecule `CC(C)=CCn1c(N2CCC3CNCC32)nc2c1c(=O)n(CC(O)c1ccccc1)c(=O)n2C` (stereo not shown) [Example 14, 8-(Hexahydropyrrolo[3,4-b]pyrrol-1-yl)-1-(2-hydroxy-2-phenylethyl)-3-methyl-7-(3-methyl-but-2-enyl)-3,7-dihydropurine-2,6-dione hydrochloride] had a half-inhibitory concentration (IC50) of 12 nM.

`Cn1c(=O)n(CC(=O)c2ccccc2)c(=O)c2c1nc(N1CCC3CNCC31)n2Cc1ccccc1` (stereo not shown) [Example 5, 7-Benzyl-8-(hexahydropyrrolo[3,4-b]pyrrol-1-yl)-3-methyl-1-(2-oxo-2-phenylethyl)-3,7-dihydropurine-2,6-dione hydrochloride] came in with an IC50 of 7.2 nM.

Regarding `Cn1c(=O)c2c(nc(N3CCC4CNCC43)n2Cc2ccccc2Cl)n(C)c1=O` (stereo not shown) [Example 97, 7-(2-Chlorobenzyl)-8-(hexahydropyrrolo[3,4-b]pyrrol-1-yl)-1,3-dimethyl-3,7-dihydropurine-2,6-dione trifluoroacetate], half-maximal inhibition (IC50) required 20 nM. Against the preceding molecule, the IC50 is about 2.8-fold higher. The same measure, in the same setting: the result for `CCn1c(=O)n(CC(=O)c2ccccc2)c(=O)c2c1nc(N1CCC3CNCC31)n2CC=C(C)C` (stereo not shown) [Example 15, 3-Ethyl-8-(hexahydropyrrolo[3,4-b]pyrrol-1-yl)-7-(3-methylbut-2-enyl)-1-(2-oxo-2-phenyl-ethyl)-3,7-dihydropurine-2,6-dione hydrochloride] reads 5 nM; that for `CC(C)=CCn1c(N2CCC3CNCC32)nc2c1c(=O)n(CC(=O)c1ccccc1)c(=O)n2CC(F)(F)F` (stereo not shown) [Example 35, 8-(Hexahydropyrrolo[3,4-b]pyrrol-1-yl)-7-(3-methylbut-2-enyl)-1-(2-oxo-2-phenylethyl)-3-(2,2,2-trifluoroethyl)-3,7-dihydropurine-2,6-dione hydrochloride], 50 nM. In turn, `CC(C)=CCn1c(N2CCC3CNCC32)nc2c1c(=O)n(CCc1ccccc1)c(=O)n2C1CC1` (stereo not shown) [Example 21, 3-Cyclopropyl-8-(hexahydropyrrolo[3,4-b]pyrrol-1-yl)-7-(3-methylbut-2-enyl)-1-phenethyl-3,7-dihydropurine-2,6-dione hydrochloride] gave an IC50 of 71 nM. The IC50 values of the last two molecules are within 1.5-fold of each other.

The molecule `CC(C)=CCn1c(N2CCC3CNCC32)nc2c1c(=O)n(CC(=O)c1cccc(Cl)c1)c(=O)n2C` (stereo not shown) [Example 42, 1-[2-(3-Chlorophenyl)-2-oxo-ethyl]-8-(hexahydropyrrolo[3,4-b]pyrrol-1-yl)-3-methyl-7-(3-methylbut-2-enyl)-3,7-dihydropurine-2,6-dione] gave an IC50 of 10 nM. The molecule `CC(C)=CCn1c(N2CCC3CNCC32)nc2c1c(=O)n(Cc1nc3cc(F)ccc3s1)c(=O)n2C` (stereo not shown) [Example 16, 1-(5-Fluorobenzothiazol-2-ylmethyl)-8-(hexahydropyrrolo[3,4-b]pyrrol 1-yl)-3-methyl-7-(3-methylbut-2-enyl)-3,7-dihydropurine-2,6-dione hydrochloride] returned an IC50 of 19 nM. Against the preceding molecule, the IC50 is about 1.9-fold higher.

Tested on in another series: not given
Experiment: not given
Details: not given
As for `CC(C)=CCn1c(N2CC[C@@H]3CN(C)C[C@@H]32)nc2c1c(=O)n(CC(=O)c1ccccc1)c(=O)n2C` (relative stereo) [Example 2, 3-Methyl-7-(3-methylbut-2-enyl)-8-(cis-5-methylhexahydropyrrolo[3,4-b]pyrrole-1-yl)-1-(2-oxo-2-phenylethyl)-3,7-dihydropurine-2,6-dione], the melting point amounted to 73.5 °C.
